The test system of the assay is P388 leukemia ip, CD2F1 mice, survival T/C. Kind of assay: NCI In Vivo Anticancer Drug Screen. Data for tumor model P388 Leukemia (intraperitoneal) in CD2F1 (CDF1) mice. The settings on record: endpoint: median survival time, higher = longer survival. The method, boiled down: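 Mice carrying the transplanted tumor received test compound or vehicle. Survival was recorded in each group, and the value is the treated-group measurement divided by that of the vehicle-treated control group.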

Where [1] appears, read: dose: 50.0 mg/kg/injection, schedule: Q01DX005 (ip), vehicle: saline with Tween-80.
Where [2] appears, read: dose: 100.0 mg/kg/injection, schedule: Q01DX005 (ip), vehicle: saline with Tween-80.
[3] abbreviates: dose: 50.0 mg/kg/injection, schedule: Q04DX003 (ip), vehicle: saline.
Where [4] appears, read: dose: 100.0 mg/kg/injection, schedule: Q04DX003 (ip), vehicle: saline.
[5] abbreviates: dose: 100.0 mg/kg/injection, schedule: Q01DX001 (ip), vehicle: Klucel (hydroxypropylcellulose) (HPC).
Where [6] appears, read: dose: 200.0 mg/kg/injection, schedule: Q01DX001 (ip), vehicle: Klucel (hydroxypropylcellulose) (HPC).
Where [7] appears, read: dose: 50.0 mg/kg/injection, schedule: Q01DX009 (ip), vehicle: Klucel (hydroxypropylcellulose) (HPC).
Where [8] appears, read: dose: 100.0 mg/kg/injection, schedule: Q01DX009 (ip), vehicle: Klucel (hydroxypropylcellulose) (HPC).
Setting [9] is: dose: 200.0 mg/kg/injection, schedule: Q01DX009 (ip), vehicle: Klucel (hydroxypropylcellulose) (HPC).

“And” between values parts separate entries of the source, which are not always exact repeats. Identical values can stand only once. Inconclusive results and toxic doses are left out.

For `N[C@H](C(=O)O)[C@@H]1CC(S(=O)(=O)c2ccccc2)=NO1`, the T/C by setting is: (dose: 12.5 mg/kg/injection, schedule: Q01DX005 (ip), vehicle: distilled water + Tween-80) 102 % of control; (dose: 25.0 mg/kg/injection, schedule: Q01DX005 (ip), vehicle: distilled water + Tween-80) 102 % of control.

`CC(C)[C@]12O[C@H]1[C@@H]1O[C@]13[C@]1(O[C@H]1C[C@H]1C4=C(CC[C@@]13C)C(=O)OC4)[C@@H]2O`: the T/C is, setting by setting: (dose: 62.5 micrograms/kg/injection, schedule: Q01DX009 (ip), vehicle: saline with Tween-80) 95 % of control; (dose: 125.0 micrograms/kg/injection, schedule: Q01DX009 (ip), vehicle: saline with Tween-80) 95 % of control; (dose: 250.0 micrograms/kg/injection, schedule: Q01DX009 (ip), vehicle: saline with Tween-80) 112 % of control.

For the compound `CCCCCC12OCC(C)(C)N1O2` (centres undefined), the T/C was 100 % of control (dose: 60.0 mg/kg/injection, schedule: Q01DX005 (ip), vehicle: saline); 109 % of control (dose: 120.0 mg/kg/injection, schedule: Q01DX005 (ip), vehicle: saline); 103 % of control (dose: 240.0 mg/kg/injection, schedule: Q01DX005 (ip), vehicle: saline).

On to `CC(C)=C(C#C[Si](C)(C)C)OS(=O)(=O)C(F)(F)F`, for which the T/C under setting [1] was 100 % of control; the T/C under setting [2] was 101 % of control; the T/C (dose: 200.0 mg/kg/injection, schedule: Q01DX005 (ip), vehicle: saline with Tween-80) was 101 % of control.

For the compound `CNC(=S)N/N=C(\C)C(C)(C)C`, the T/C reads like this: (dose: 25.0 mg/kg/injection, schedule: Q04DX003 (ip), vehicle: saline) 101 % of control; under setting [3], 101 % of control; under setting [4], 99 % of control and 104 % of control.

Consider `Cc1cccc(C)c1NC=O`, for which the T/C under setting [3] was 112 % of control; the T/C under setting [4] is 105 % of control; the T/C (dose: 200.0 mg/kg/injection, schedule: Q04DX003 (ip), vehicle: saline) is 106 % of control; the T/C (dose: 400.0 mg/kg/injection, schedule: Q04DX003 (ip), vehicle: saline) is 106 % of control.

Turning to `O=C1C=CC(=O)N1c1ccc(Cl)cc1Cl`, the T/C is, setting by setting: (dose: 3.12 mg/kg/injection, schedule: Q04DX003 (ip), vehicle: saline with Tween-80) 105 % of control; (dose: 6.25 mg/kg/injection, schedule: Q04DX003 (ip), vehicle: saline with Tween-80) 109 % of control; (dose: 12.5 mg/kg/injection, schedule: Q04DX003 (ip), vehicle: saline with Tween-80) 96 % of control.

Regarding `N#CC1C(=O)NC(=O)C(C#N)C1CCc1ccccc1` (centres undefined), the T/C is, setting by setting: (dose: 50.0 mg/kg/injection, schedule: Q01DX009 (ip), vehicle: distilled water + alcohol) 103 % of control; (dose: 100.0 mg/kg/injection, schedule: Q01DX009 (ip), vehicle: distilled water + alcohol) 100 % of control; (dose: 200.0 mg/kg/injection, schedule: Q01DX009 (ip), vehicle: distilled water + alcohol) 100 % of control.

In the case of `CC1=NN(C(=O)c2ccccc2)C(=O)C1N=Nc1ccc(S(N)(=O)=O)cc1` (centres undefined), the T/C is 101 % of control (dose: 50.0 mg/kg/injection, schedule: Q01DX001 (ip), vehicle: Klucel (hydroxypropylcellulose) (HPC)); 94 % of control under setting [5]; 96 % of control under setting [6]; 90 % of control (dose: 400.0 mg/kg/injection, schedule: Q01DX001 (ip), vehicle: Klucel (hydroxypropylcellulose) (HPC)).

As to `C=Cn1c([N+](=O)[O-])cnc1/C=C/c1ccc(C(=O)O)cc1`, the T/C was 92 % of control and 97 % of control under setting [7]; 89 % of control and 90 % of control under setting [8]; 95 % of control under setting [9].

In the case of `CCCCSc1ccc(NN=O)nc1`, the T/C (dose: 1.56 mg/kg/injection, schedule: Q01DX009 (ip), vehicle: water) was 118 % of control and the T/C (dose: 6.25 mg/kg/injection, schedule: Q01DX009 (ip), vehicle: water) was 151 % of control.

With `COc1cc2c(cc1[N+](=O)[O-])C(=O)C(Br)(Br)CCC2`, the T/C reads like this: under setting [7], 116 % of control; under setting [8], 119 % of control.

With `Cc1cc(OCCS(=O)(=O)C(CCOS(C)(=O)=O)COS(C)(=O)=O)cc(C)c1Cl` (centres undefined), the T/C by setting is: under setting [7], 105 % of control; under setting [8], 102 % of control; under setting [9], 101 % of control.

In the case of `Fc1ccc2nc3ccccc3c(SCCCCCSc3c4ccccc4nc4ccc(F)cc34)c2c1`, the T/C is, setting by setting: (dose: 60.0 mg/kg/injection, schedule: Q01DX005 (ip), vehicle: Klucel (hydroxypropylcellulose) (HPC)) 94 % of control; (dose: 120.0 mg/kg/injection, schedule: Q01DX005 (ip), vehicle: Klucel (hydroxypropylcellulose) (HPC)) 90 % of control.

Regarding `CCSC1=C(SCC)C1SCC`, the T/C (dose: 12.5 mg/kg/injection, schedule: Q04DX003 (ip), vehicle: Klucel (hydroxypropylcellulose) (HPC)) is 107 % of control; the T/C (dose: 25.0 mg/kg/injection, schedule: Q04DX003 (ip), vehicle: Klucel (hydroxypropylcellulose) (HPC)) was 107 % of control; the T/C (dose: 50.0 mg/kg/injection, schedule: Q04DX003 (ip), vehicle: Klucel (hydroxypropylcellulose) (HPC)) was 121 % of control; the T/C (dose: 100.0 mg/kg/injection, schedule: Q04DX003 (ip), vehicle: Klucel (hydroxypropylcellulose) (HPC)) was 113 % of control.

As to `CCOC(=O)N(C)C`, the T/C (dose: 25.0 mg/kg/injection, schedule: Q01DX009 (ip), vehicle: saline) was 89 % of control; the T/C (dose: 50.0 mg/kg/injection, schedule: Q01DX009 (ip), vehicle: saline) was 91 % of control; the T/C (dose: 100.0 mg/kg/injection, schedule: Q01DX009 (ip), vehicle: saline) was 99 % of control; the T/C (dose: 200.0 mg/kg/injection, schedule: Q01DX009 (ip), vehicle: saline) was 105 % of control.

Turning to `O=c1c2ccccc2cc2n1CCN2`, the T/C (dose: 50.0 mg/kg/injection, schedule: Q01DX005 (ip), vehicle: Klucel (hydroxypropylcellulose) (HPC)) is 96 % of control; the T/C (dose: 100.0 mg/kg/injection, schedule: Q01DX005 (ip), vehicle: Klucel (hydroxypropylcellulose) (HPC)) was 112 % of control; the T/C (dose: 200.0 mg/kg/injection, schedule: Q01DX005 (ip), vehicle: Klucel (hydroxypropylcellulose) (HPC)) is 107 % of control.

`Cc1c2c(c(C)c3c1[nH]c1ccccc13)C(C#N)N(C(=O)c1ccccc1)C=C2` (centres undefined): the T/C (dose: 6.25 mg/kg/injection, schedule: Q04DX003 (ip), vehicle: distilled water + Tween-80) was 100 % of control; the T/C (dose: 12.5 mg/kg/injection, schedule: Q04DX003 (ip), vehicle: distilled water + Tween-80) was 102 % of control; the T/C (dose: 25.0 mg/kg/injection, schedule: Q04DX003 (ip), vehicle: distilled water + Tween-80) was 90 % of control; the T/C (dose: 50.0 mg/kg/injection, schedule: Q04DX003 (ip), vehicle: distilled water + Tween-80) is 88 % of control; the T/C (dose: 100.0 mg/kg/injection, schedule: Q04DX003 (ip), vehicle: distilled water + Tween-80) was 90 % of control; the T/C (dose: 200.0 mg/kg/injection, schedule: Q04DX003 (ip), vehicle: distilled water + Tween-80) was 94 % of control.

For the compound `CC(C)CNCC(=O)Nc1ccc(Cc2ccc(NC(=O)CNCC(C)C)cc2)cc1`, the T/C runs as follows: under setting [1], 102 % of control; under setting [2], 97 % of control.

`CC(=O)OCC12CCC(C)=CC1OC1C(N3CCOCC3)C(O)C2(C)C12CO2` (centres undefined): the T/C runs as follows: (dose: 0.62 mg/kg/injection, schedule: Q04DX002 (ip), vehicle: water) 123 % of control; (dose: 1.25 mg/kg/injection, schedule: Q04DX002 (ip), vehicle: water) 123 % of control; (dose: 2.5 mg/kg/injection, schedule: Q04DX002 (ip), vehicle: water) 123 % of control.

On to `Nc1nc(Sc2ccc([N+](=O)[O-])c3nonc23)c2ncn(C3OC(CO)C(O)C3O)c2n1` (centres undefined), for which the T/C is, setting by setting: (dose: 3.12 mg/kg/injection, schedule: Q01DX009 (ip), vehicle: Klucel (hydroxypropylcellulose) (HPC)) 113 % of control; (dose: 6.25 mg/kg/injection, schedule: Q01DX009 (ip), vehicle: Klucel (hydroxypropylcellulose) (HPC)) 113 % of control; (dose: 25.0 mg/kg/injection, schedule: Q01DX009 (ip), vehicle: Klucel (hydroxypropylcellulose) (HPC)) 122 % of control; under setting [7], 102 % of control and 118 % of control.

On to `CCOP(=O)(O)OCC.CCOP(=O)(O)OCC.[O]=[V]`, for which the T/C is, setting by setting: under setting [5], 100 % of control; under setting [6], 100 % of control.

Regarding `C[CH2][Sn]1([CH2]C)[O]C(=O)CCCCC(=O)[O]1`, the T/C (dose: 12.5 mg/kg/injection, schedule: Q04DX003 (ip), vehicle: saline) was 115 % of control.
